Measured values taken from paper PMC6014988, “Precision therapeutic targeting of human cancer cell motility” (Nature Communications, 2018).
pIC50: −log10 of the molar value.

How the values were obtained:
CK2 = CK2 in vitro kinase assay; assay type: biochemical; conditions: in the presence of CDC37
From the text: CK2 activity. […] If they haven’t, I […]
affected by KBU2046. Specifically, because of CK2’s known link to S226 we likewise suspected that it could be involved in the mechanism of action. CK2 was indeed included in the LUMIER assay (see
Fig. 6 and Supplementary Fig. 19). We used the LUMIER assay to evaluate whether KBU2046 was altering the binding of client protein kinases to HSP90β/CDC37 heterocomplexes in intact cells, and thereby evaluated hundreds of client protein kinases. In this manner, we observed that KBU2046 did […]
known mechanistic link, we also utilized our in vitro system to interrogate purified CK2 and specifically […]
below, and if requested, we are happy to insert these otherwise negative findings into supplementary […]
CK2 in vitro kinase assay. As described in Figs 6f and g, the ability of recombinant CK2 to phosphorylate serine 226 on HSP90β, in the presence of CDC37, was evaluated +/- KBU2046 (46). Reaction time in minutes
(Mins) is denoted. KBU2046 had no effect upon serine 226 phosphorylation.
12. On top of the 8th page of the Results (where the authors discuss data in Fig. 5b-d and in […]
hydrogen bond formation with Glu33 of Hsp90beta to create formation of a new pocket into which the drug binds. […]
Additional comment 1. Figure 4c: if the data are expressed as %VC, should not the VC bar be set at […]

[1] = tested on: human breast cancer LM2-4H2N cells; experiment: Breast cancer orthotopic implantation and resection survival model; assay type: in vivo, mouse; conditions: 25 mg/kg oral gavage five times per week, post-surgery adjuvant setting
Procedure: Breast cancer: orthotopic implantation: Orthotopic implantation of 2 × 10^6 dTomato-LM2-4H2N cells in matrigel:PBS human breast cancer cells into 5–6 week old female SCID-Beige mice (Taconic), followed by resection of resultant primary tumor, provides a model wherein survival is dictated by metastatic burden, and was performed as described. KBU2046 treatment by oral gavage 5 days per week began 4 weeks after resection, with weekly IVIS imaging. Animals were excluded from the analysis if they died and/or met the criteria for euthanasia in the 7 day post-operative period. Experimental groups were randomly assigned based upon size of primary tumor before treatment, in and manner that ensured equal distribution of tumor sizes across treatment groups.

[2] = Three-day MTT cell growth inhibition assay, 1542NPTX; assay type: cell-based, human; conditions: human, 1542NPTX cells
1542NPTX = experiment: as above; assay type: cell-based, human; conditions: Homo sapiens, 72 h, 3 days
[3] = tested on: p38 MAPK and HSP27 phosphorylation; experiment: Phosphorylation of p38 MAPK and HSP27 in PC3-M cells, Western blot; assay type: cell-based, human; conditions: 50 µM, 24 hours, then TGFβ
Procedure: Supplementary Figure 9. […] (a) Depiction of […]
established MKK4 pathway regulating human PCa cell metastasis. […]
to MKK4, as measured by fluorescence-based thermal shift assay. Values are the mean±SD (of N=2 replicates) increase in melting temperature (ΔTm) of purified recombinant MKK4 induced by the indicated concentrations of KBU2046 or genistein. […]
in an in vitro kinase assay. The indicated concentrations of KBU2046 were added to recombinant activated MKK4, and its ability to phosphorylate kinase dead p38α MAPK (K53A) was measured by Western blot for total (p38 MAPK) and phosphorylated (pp38 MAPK) forms of […]
HSP27 in cells. PC3-M cells were pre-treated for 24 hours with 50 µM KBU2046 or genistein, as indicated, then with TGFβ, and Western blot performed. All findings are from a single experiment, with similar findings in identical separate experiments, repeated at least once. […]

Question: Which results are given for O=C1c2ccccc2OCC1c1ccc(F)cc1 (racemic) [KBU2046, (±)-3(4-fluorophenyl)chroman-4-one]?
Answer: CK2 phosphorylation of S226 on HSP90β (CK2): does not inhibit; survival [1]: significantly prolonged the survival; viability at 3 days, 50 µM [2]: 107%; IC20 (1542NPTX): > 50 µM; pIC50 (1542NPTX): < 4.30; downstream phosphorylation of p38 MAPK and HSP27 [3]: did not inhibit downstream phosphorylation
